Laboratory results from US20230416751A1, “MATERIALS AND METHODS FOR TREATING CORNEAL DYSFUNCTION” (UNIVERSITY OF MIAMI, priority 2020, published 2023).

Tests used:
caspase-1 [1] = assay: siRNA inflammasome inhibitor in vitro assay: caspase-1 SimpleStep ELISA in HCEC-B4G12 cells; format: cell-based, human; settings: HCEC-B4G12, YVAD 30 ng/ml, TNFα and INFγ, 72 hours; vs positive control cells treated only with TNFα and INFγ
Protocol: HCEC-B4G12 (Human Corneal Endothelial Cell Line) cells were obtained from Leibniz Institute DSMZ and maintained in Endothelial SFM supplemented with FGF 10 ng/ml in a humidified incubator under an atmosphere of 5% CO2/95% air at 37° C. For transfection, cells were seeded in 12 well culture plates until cultures reached 95-100% confluence. The cells were then transfected with 1 μM ASC siRNAs using siPORT NeoFX Transfection Agent (Invitrogen) following the manufacturer protocol.
Transfection efficiency was estimated by assessing the amount of Block-it Alexa Fluor green fluorescent oligonucleotide (Invitrogen) present inside cells in control cultures 24 and 72 hours after transfection. […] Following the 72 hours treated endothelial cells were placed on 150 μL of lysis buffer with protease inhibitor cocktail (Sigma), and caspase-1 levels were measured by SimpleStep ELISA™ kit (Abcam; Cambridge, UK) according to the manufacturer's instructions. Caspase-1 protein levels were determined by measuring the fluorescence intensity using a microplate reader (SpectraMax iD3, Molecular Device, San Jose, CA, USA) with excitation and emission wavelengths set at 485 and 535 nm, respectively. […]
Caspase-1 levels were analyzed by SimpleStep ELISA after 72 hours of treatment with either YVAD (30 ng/ml) or ASC siRNA (1 μM) transfection, both sets of cells underwent inflammation induction with TNFα and INFγ. […]

human CEC [2] = assay: Intracellular ROS detection (DCF-DA) in corneal endothelial grafts exposed to TNF-α and IFN-γ; format: cell-based; settings: Ac-YVAD-cmk 30 ng/ml, 48 hours, p<0.001
Protocol: (§1) Endothelial grafts were isolated from corneal tissue grafts stored in Optisol GS (Bausch & Lomb; Rochester, New York, USA) and transferred to 24-well plates in DMEM/F12 medium (Gibco, Invitrogen Thermo Fisher, Carlsbad, CA, USA) supplemented with 5% fetal bovine serum (Gibco, Invitrogen Thermo Fisher, Carlsbad, CA, USA) and incubated at 37° C. for 48 hours to stabilize the cells following hypothermic storage. Medium was replaced and endothelial grafts were treated with TNF-α (100 ng/ml, R&D Systems, Minneapolis, MN, USA) and IFN-γ (100 ng/ml, Systems, Minneapolis, MN, USA)^34 and were incubated at 37° C. for 48 hours. Caspase-1 inhibitor, Ac-YVAD-cmk (30 ng/ml, InvivoGen, San Diego, CA, USA) was used to inhibit the inflammasome in CEC.
Measurement of intracellular ROS levels was performed using a 2,7-dichlorofluorescein diacetate (DCF-DA) Cellular Reactive Oxygen Species Detection Assay Kit (Abcam, Cambridge, UK) according to the manufacturer's instructions as described in^36. Endothelial grafts were incubated with 10 μM DCF-DA at 37° C. for 45 min. Then, ROS level was determined by measuring the fluorescence intensity using a microplate reader (SpectraMax iD3, Molecular Device, San Jose, CA, USA) with excitation and emission wavelengths set at 485 and 535 nm, respectively. Tert-butyl hydrogen peroxide (TBHP) was used as the positive control. […]

human CEC [3] = assay: Lactate dehydrogenase (LDH) release assay in corneal endothelial grafts exposed to TNF-α and IFN-γ; format: cell-based; settings: supernatant of grafts exposed to TNF-α and IFN-γ, Ac-YVAD-cmk 30 ng/ml, 48 hours; p<0.05
Protocol: as §1
Cytotoxicity of CEC after TNF-α, IFN-γ treatment was assessed by LDH release assay. LDH release assay was measure using a CytoTox 96® Non-Radioactive Cytotoxicity Assay kit (Promega, Madison, WI, USA) performed according to the manufacturer's instructions as described in^35. The absorbance was measured using a microplate reader (SpectraMax iD3, Molecular Device, San Jose, CA, USA) with excitation and emission wavelengths set at 490 nm.

caspase-1 [4] = assay: Caspase-1 ELISA in human corneal endothelial grafts exposed to TNF-α and IFN-γ; format: cell-based; settings: Ac-YVAD-cmk 30 ng/ml, TNF-α 100 ng/ml + IFN-γ 100 ng/ml, 48 hours; vs exposed and control non-exposed grafts, p<0.0001
Protocol: as §1
(§2) To study the expression of inflammasome signaling proteins in endothelial grafts, cells were treated with TNF-α and IFN-γ for 48 hours. Treated endothelial grafts were placed on […] of lysis buffer with protease inhibitor cocktail (Sigma) and Caspase-1 and […] levels were measure by SimpleStep ELISA™ kit (Abcam; Cambridge, UK) according to the manufacturer's instructions. Caspase-1 and IL-1β protein levels were determined by measuring the fluorescence intensity using a microplate reader (SpectraMax iD3, Molecular Device, San Jose, CA, USA) with excitation and emission wavelengths set at 485 and 535 nm, respectively. […]

IL-1β = IL-1β ELISA in human corneal endothelial grafts exposed to TNF-α and IFN-γ; format: cell-based; settings: Ac-YVAD-cmk 30 ng/ml, TNF-α 100 ng/ml + IFN-γ 100 ng/ml, 48 hours; vs exposed grafts
Protocol: as §1, §2

GSDM-D = GSDM-D immunofluorescence in corneal endothelial grafts exposed to TNF-α and IFN-γ; format: cell-based, human; settings: Ac-YVAD-cmk, TNF-α 100 ng/ml + IFN-γ 100 ng/ml, 48 hours
Protocol: as §1
(§3) Endothelial grafts were fixed with 4% paraformaldehyde for 10 minutes at room temperature and washed with PBS. For immunofluorescence staining, samples were permeabilized with 0.3% Triton X-100 in PBS for 15 minutes and blocked with Image-iT FX signal enhancer (Invitrogen ThermoFisher Scientific; Carlsbad, CA, USA) for 30 minutes at room temperature. Isotype-matched nonspecific IgG antibodies were used as controls. […] Stained samples were examined using an inverted fluorescence microscope (BZ-X800 Analyzer, KEYENCE, Osaka, Japan). Images were analyzed using BZ-X-Analyzer software (KEYENCE, Osaka, Japan).

caspase-1 [5] = assay: Caspase-1 immunofluorescence in corneal endothelial grafts exposed to TNF-α and IFN-γ; format: cell-based, human; settings: Ac-YVAD-cmk 30 ng/ml, TNF-α 100 ng/ml + IFN-γ 100 ng/ml, 48 hours
Protocol: as §1, §3

Substance: Ac-YVAD-cmk
- decrease of caspase-1 levels (caspase-1 [1]): about 41%
- ROS levels (human CEC [2]): significantly downregulated
- LDH levels (LDH release, cell death) (human CEC [3]): significantly downregulated
- caspase-1 levels (ELISA) (caspase-1 [4]): significantly lower levels of caspase-1
- IL-1β levels (ELISA) (IL-1β): did not show significantly lower levels of IL-1β
- intracellular (cytoplasmic) immunoreactivity of GSDM-D (GSDM-D): inhibited
- caspase-1 expression (immunofluorescence) (caspase-1 [5]): lower expression of caspase-1
